Laboratory results from patent US4870175A, “6-substituted alkoxy-2-oxo-1,2-dihydroquinoxaline derivatives” (Toyo Jozo Kabushiki Kaisha, priority 1987, dated 1989).
Where two headings read alike, the source gives them in different places.

Legend:
[1] = test system: cyclic AMP/phosphodiesterase; assay: Inhibitory action of cyclic AMP/phosphodiesterase (crude enzyme fraction from sonicated rabbit platelets); assay type: biochemical; conditions: 40 min
Protocol: The pharmacological activity of the present compounds [1] is illustrated below. (1) Inhibitory action of cyclic AMP/phosphodiesterase:
A mixture of 2 mM MgCl2 /40 mM Tris-buffer (pH 7.5) 700 μl, enzyme solution (a crude enzyme fraction obtained from sonicated rabbit platelets) 100 μl, and a test sample solution (compound [1] dissolved in 50% aqueous methanol) 100 μl is incubated at 30° C. for 5 mins. 3', 5'-cyclic AMP 100 μl (50 μg) is added thereto and the mixture is further incubated for 40 mins. The reaction is stopped by heating 100° C. for 5 mins. The amount of 5'-AMP in the supernatant obtained by centrifugation at 3000 rpm for 5 mins. is measured using HPLC.
As shown in that table, the compound of the present invention has cyclic AMP/phosphodiesterase inhibitory activity at 1-10 μg/ml.

[2] = test system: rabbit platelet-rich plasma; assay: Platelet aggregation inhibition (rabbit platelet-rich plasma, aggregometer); assay type: cell-based; conditions: Oryctolagus cuniculus, compound final concentration 10 μM, read-out: Inhibitory ratio
Protocol: (2) Platelet aggregation inhibition:
A rabbit platelet-rich plasma (5×10^5 /mm^3), to which was added 1/10 volume of a 3.8% sodium citrate solution, 216 μl, is incubated in an aggregometer at 37° C., 1000 rpm, for 3 mins. A test sample solution 12 μl (final concentration 10 μM) is added thereto and the mixture is further incubated for 3 mins., and collagen (aggregation agent) 2.5 μg/ml, ADP 2.5 μM, platelet activating factor (PAF) 0.05 μg/ml or 0.25 mM arachidonic acid (A.A.) 12 μl is added thereto as an aggregating agent, and the platelet aggregation activity is measured.

[3] = aggregating agent PAF 0.05 μg/ml
[4] = aggregating agent arachidonic acid (A.A.) 0.25 mM
[5] = aggregating agent collagen 2.5 μg/ml

Compound | Inhibitory ratio ([1]; 1 μg/ml) [%] | Inhibitory ratio ([1]; 10 μg/ml) [%] | inhibition at 10 µM ([2]; aggregating agent ADP 2.5 μM) [%] | inhibition at 10 µM [2, 3] [%] | inhibition at 10 µM [2, 4] [%] | inhibition at 10 µM [2, 5] [%] | Inhibitory ratio ([1]; 100 μg/ml) [%]
CCc1nc2cc(OCCCC(=O)N(CCO)C3CCCCC3)ccc2[nH]c1=O [Compound 972] | 84.4 | 93.4 | 63.6 | 56.3 | 48.7 | 70.5 | –
O=C(CCCCOc1ccc2[nH]c(=O)cnc2c1)N(CCO)C1CCCCC1 [Compound 923] | 43.7 | 81.8 | 68 | 29 | 56.7 | 75.7 | 92.4
CCCc1nc2cc(OCCCC(=O)OCC)ccc2[nH]c1=O [Compound 947] | 66.9 | 90.1 | 59.5 | 27.5 | 19.6 | 39.5 | –
CCOC(=O)CCCOc1ccc2[nH]c(=O)c(CC)nc2c1 [Compound 946] | 78.7 | 92.5 | 91.5 | 90.7 | 85.1 | 79.2 | –
Cc1nc2cc(OCCCC(=O)N(CCO)C3CCCCC3)ccc2[nH]c1=O [Compound 966] | 54.5 | 86.6 | – | – | – | 83.5 | 93.7
CN(C(=O)CCCCOc1ccc2[nH]c(=O)cnc2c1)C1CCCCC1 [Compound 920] | 42.9 | 81.7 | 49.3 | 26.9 | 30.2 | 52.5 | 75.1
